Measured values published in US9315535B2, “Nucleoside and nucleotide having nitrogen-containing heterocycle structure” (SHIONOGI & CO., LTD., priority 2013, dated 2016).

How the values were obtained:
[1] = test system: DNA complementary strand (sense strand 3′-CGC AAA AAA CGA-5′); assay: Melting temperature (Tm) of oligonucleotide hybridized to the DNA complementary strand; assay type: binding
Description: (§1) Nitrogen stream was passed through the cell chamber of the spectrophotometer (SHIMADZU UV-1800) to prevent dew condensation, and the sample solution was gradually cooled to 5° C. and kept at 5° C. for 15 minutes before starting the measurements. The temperature was raised to 90° C. at the rate of 0.5° C./min while ultraviolet absorption spectra were measured at 260 nm at intervals of 0.5° C. Lidded cells were used to prevent concentration change due to rising temperature.
(§2) The method for determining the Tm values was a method similar to (1).
as §2

[2] = test system: RNA complementary strand (sense strand 3′-CGC AAA AAA CGA-5′); assay: Melting temperature (Tm) of oligonucleotide hybridized to the RNA complementary strand; assay type: binding
Description: as §1, §2, §2

[3] = Table 10, X = II-1 (compound I-1), 100 mM NaCl, 10 mM sodium phosphate buffer (pH 7.2), 4.0 μM each strand
[4] = Table 11, Xp = II-2 (compound IV-1), method similar to (1)
[5] = Table 12, nucleoside structure of compound VII-1 (II-3), method similar to (1)

Substance: 5′-d(GCG TTT TTT GCT)-3′ (DNA GCGTTTTTTGCT; DNA, backbone not given here) [oligonucleotide (0), nucleoside moieties of the oligonucleotide are unmodified, used as a control, reference compound]
- Tm, DNA complementary strand [1, 3]: 53.1 °C
- Tm, DNA complementary strand [1, 4]: 53.1 °C
- Tm, DNA complementary strand [1, 5]: 54.0 °C
- Tm, RNA complementary strand [2, 3]: 49.3 °C
- Tm, RNA complementary strand [2, 4]: 49.3 °C
- Tm, RNA complementary strand [2, 5]: 49.7 °C
